{
  "source": "patent US20120269730A1",
  "about": "“Intracellular Delivery of Contrast Agents with Functionalized Nanoparticles” (Northwestern University, priority 2009, published 2012)",
  "key": {"[1]": {"assay": "T1-weighted MR imaging and T1 analysis of solution phantoms (3T and 14.1T)", "type": "physicochemical", "description": "(§1) 14.1T MR imaging and T1 measurements were performed on a General Electric/Bruker Omega 600WB 14.1T imaging spectrometer fitted with accustar shielded gradient coils at 25° C. For solution phantoms, 50 […], of 60, 40 and 20 μM Gd(III) (DOTA-Gd(III) and Gd(III)-AuNP) in complete cell media were added to flame-sealed 5¾″ Pasteur pipettes and centrifuged at 4.0° C. and 100×g for 5.0 minutes. Capillaries were then placed in a custom-made glass capillary holder and imaged in a 20 mm birdcage coil. For cell phantoms, approximately 1.5×10^6 NIH/3T3 cells were incubated with 20 or 5.0 μM ([Gd(III)]) Gd(III)-AuNP or DOTA-Gd(III) for 24 hours, rinsed two times with DPBS, and harvested with trypsin. After addition of complete media (1.0 mL total volume) cells were added to flame-sealed 5¾″ Pasteur pipettes and centrifuged at 4.0° C. and 100×g for 5.0 minutes. Capillaries were then placed in a custom-made glass capillary holder and imaged in a 10 mm birdcage coil. Spin lattice relaxation times (T1) were measured using a saturation recovery pulse sequence with static TE (10.18 ms) and variable TR (350, 500, 750, 1000, 1500, 2500, 4000, 7500, 15000 ms) values. […]"}, "[2]": {"details": "data taken from Merbach et al., 37° C., cited from earlier work"}, "[3]": {"test_system": "NIH/3T3 cells", "assay": "14.1T T1-weighted MR imaging and T1 analysis of labeled cell pellets", "type": "cell-based", "details": "24 hours, about 10^6 cells", "description": "as §1"}, "[4]": {"test_system": "NIH/3T3 and HeLa cells", "assay": "Cell counting and percent cell viability (Guava ViaCount flow cytometry)", "type": "cell-based", "details": "any of the conditions tested", "description": "Cell Counting and Percent Cell Viability Determination Using a Guava EasyCyte Mini Personal Cell Analyzer (PCA) Flow Cytometry System. Cells were counted and percent cell viability determined via a Guava EasyCyte mini personal cell analyzer (Guava Technologies, Hayward, Calif., USA). Specifically, after cell harvesting an aliquot (10 or 20 μL) of the cell suspensions were mixed with Guava ViaCount reagent (final sample volume of 200 μL) and allowed to stain at room temperature for at least 5 minutes (no longer than 20 minutes). Stained samples were then vortexed for 5 seconds, after which cells were counted and percent cell viability determined via manual analysis using the ViaCount software module. For each sample, 1000 events were acquired with dilution factors that were determined based upon optimum machine performance (approximately 50-200 cells/μL).\nTo determine the efficacy of cellular uptake, NIH/3T3 and HeLa cells were labeled with increasing concentrations of DNA-Gd(III)-AuNPs or DOTA-Gd(III) for different amounts of time. Following agent incubation, cells were rinsed with DPBS, counted and then percent viability was assessed via flow cytometry. Gd(III) and Au content were determined via ICP-MS of acid digested samples. […] At all concentrations the Gd(III) uptake was >50-fold higher for DNA-Gd(III)-AuNPs than DOTA-Gd(III). […]"}},
  "note": "Where “and” joins values, the source holds several entries; their conditions need not be identical. Equal entries are not always repeated. Where two headings read alike, the source gives them in different places.",
  "data": [
    {"compound": "O=C([O-])CN1CCN(CC(=O)[O-])CCN(CC(=O)O)CCN(CC(=O)[O-])CC1.[Gd+3]", "note": "[DOTA-Gd(III)]", "values": [
      {"measurement": "reduction in T1, solution phantoms", "setting": "[1]; 14.1T, 25° C., 60 μM Gd(III), complete cell media", "result": 31, "unit": "%"},
      {"measurement": "r1 600 MHz (14.1T)", "setting": "[1]; per Gd(III) (ionic), image-based, cell media at 25° C.", "result": "2.1 mM⁻¹ s⁻¹ and 2.2 mM⁻¹ s⁻¹"},
      {"measurement": "r1 60 MHz (1.41T)", "setting": "[2]", "result": "3.2^c mM^−1s^−1"},
      {"measurement": "r1 60 MHz (1.41T)", "setting": "[2]; listed as unconjugated Gd(III) complex", "result": 3.2, "unit": "mM⁻¹ s⁻¹"},
      {"measurement": "T1 reduction of labeled cell pellets", "setting": "[3]; 5.0 μM Gd(III) incubation", "result": "no significant difference from control cell pellets"},
      {"measurement": "T1 reduction of labeled cell pellets", "setting": "[3]; 20 μM Gd(III) incubation", "result": "no significant difference from control cell pellets"},
      {"measurement": "cell toxicity or cell number variation", "setting": "[4]", "result": "no evidence of cell toxicity or cell number variation"}
    ]}
  ]
}
